{
  "source": "patent EP4473972A1",
  "about": "“COMBINATIONS COMPRISING AN ATR INHIBITOR WITH SYNERGISTIC EFFECT AGAINST GLIOMAS” (Eberhard-Karls-Universität Tübingen, priority 2023, dated 2024)",
  "key": {"[1]": {"system": "patient-derived glioblastoma microtumor models (PDM)", "test": "Patient derived microtumors (PDM) viability, RealTime-Glo MT Cell Viability Assay", "format": "cell-based", "conditions": "patient-derived microtumors (PDMs), 72 h", "protocol": "PDMs were extracted from surgically resected, residual glioblastoma tissue as is known to the skilled person. The inventors treated the PDMs with indicated drug concentrations for 72 h and determined cell viability using RealTime-Glo MT Cell Viability Assay (Promega, Madison, Wl, US). Luminescence assay signal was measured using a multimode microplate reader (Tecan, Männedorf, Switzerland). Obtained luminescence units were background corrected and plotted as dose response curves using GraphPad Prism 9 software. The use of residual tissue after tumor resections was approved by the ethical board of the University Hospital Tübingen."}, "[2]": {"system": "LN229-GFP cells", "test": "Zebrafish embryo xenotransplant, tumor area", "format": "in vivo, wildtype zebrafish embryos", "conditions": "monotherapy, 48 h of treatment; not significant as compared to the DMSO control", "protocol": "The inventors used zebrafish wildtype (wt) TE embryos younger than 5 days post-fertilization (dpf). […] Labelled cells were suspended in PBS at 2*10^5 cells/µL and approx. 1 nL cell suspension was injected into the midbrain region of 24 hpf embryos. The inventors incubated the embryos at 28°C for 1 h and afterwards divided them into treatment groups. Only successfully transplanted embryos were used for further experiments. Then, the inventors applied the treatments as indicated in the respective figures and incubated that for 48 h at 35°C. For evaluation of tumor size, they imaged embryos on a Nikon Stereomicroscope (SMZ18) with the NIS Element software. The inventors assessed the tumor surface areas using Imaris (version 9.2.0)."}},
  "data": [
    {"molecule": "C[C@@H]1COCCN1c1cc(C2([S@](C)(=N)=O)CC2)nc(-c2cc[nH]c3nccc2-3)n1", "note": "[AZD6738, ceralasertib]", "values": [
      {"measurement": "cell viability", "setting": "[1]", "result": "dose-dependent reduction"},
      {"measurement": "tumor area", "setting": "[2]", "result": "modest decrease"}
    ]}
  ]
}
